Values joined by “and” are separate entries in the source; they are usually repeats but may differ in a detail not shown here. Equal entries are not always repeated.
Test system: uterine horn adhesions
Experiment: rabbit uterine horn model of adhesion formation, oral + local (gel) COMPOUND 1 study
Format: in vivo, New Zealand White rabbits
Parameters: key to tenacity of the adhesions score (in parentheses), Right Horn, Bowel / tenacity of the adhesions score (in parentheses), Right Horn, Itself / tenacity of the adhesions score (in parentheses), Left Horn, Itself / tenacity of the adhesions score (in parentheses), Right Horn, Left / tenacity of the adhesions score (in parentheses), Left Horn, Bowel / tenacity of the adhesions score (in parentheses), Left Horn, Right / tenacity of the adhesions score (in parentheses), Right Horn, Bladder / tenacity of the adhesions score (in parentheses), Left Horn, Bladder: 0=No Adhesions; 1=mild, easily dissectable adhesions; 2=moderate adhesions; non-dissectable, does not tear the organ; 3=dense adhesions; non-dissectable, tears organ when removed; key to Overall score: overall adhesion score; 1 = mild, 1.5+ slightly tougher/more extensive
Conditions: for Overall, (group summary): group value ± spread, overall scores analyzed by rank order analysis
Procedure: The compounds of the instant invention are tested in known models of adhesion formation. These test systems include a rabbit sidewall model of adhesion formation as described in Rogers, et al., J. Invest. Surg., 9:388-391 (1996) and Rodgers, et al., […], 69(3):403-408 (1998); a rat model for adhesion formation as described in Harris, et al., Surgery, 117:663-669 (1995); and a rabbit animal model used to examine laparoscopic adhesion prevention. The rabbit uterine horn model may also be used to test the use of the instant vitronectin inhibiting compounds as inhibitors of adhesion formation. The experimental details and results using this model are detailed below.
Animals: New Zealand White rabbits, 2.4-2.7 kg, were purchased and quarantined for at least 2 days prior to use. The rabbits were randomized into appropriate control and treatment groups (see experimental designs below). The rabbits were housed on a 12:12 light:dark cycle with food and water available ad libitum. Each treatment group in all studies contained 8-10 animals.
Adhesion Model: The animals that received COMPOUND 1 or vehicle according to the experimental design (below). The rabbits that received placebo at surgery received two doses of vehicle orally. Rabbits were anesthetized with a mixture of 55 mg/kg ketamine hydrochloride and 5 mg/kg Rompum intramuscularly. Following preparation for sterile surgery, a midline laparotomy was performed. The uterine horns were exteriorized and traumatized by abrasion of the serosal surface with gauze until punctate bleeding developed. Ischemia of both uterine horns was induced by removal of the collateral blood supply. The remaining blood supply to the uterine horns was the ascending branches of the utero-vaginal arterial supply of the myometrium. The midline muscle and skin incision were closed.
After 7 or 14 days, the rabbits were terminated and adhesions were scored on a site and rabbit basis. Specifically, the percentage of the area of the horns adherent to various organs was determined. In addition, the tenacity of the adhesions was scored using the following system:
1=mild, easily dissectable adhesions
3=dense adhesions; non-dissectable, tears organ when removed
An overall score which took into account all of the above data was given to each rabbit. The following scoring system was used:
0.5+ Light, filmy pelvic adhesions involving only one organ, typically only 1 or 2 small adhesions
1.0+ Light, filmy adhesions, not extensive although slightly more extensive than 0.5
1.5+ Adhesions slightly tougher and more extensive than a 1 rating
2.0+ Tougher adhesions, a little more extensive, uterine horns usually have adhesions to both bowel and bladder
2.5+ Same as 2, except the adhesions are usually not filmy at any site and more extensive
3.0+ Tougher adhesions than 2, more extensive, both horns are attached to the bowel and bladder, some movement of the uterus possible
3.5+ Same as 3, but adhesions slightly more extensive and tougher
4.0+ Severe adhesions, both horns attached to the bowel and bladder, unable to move the uterus without tearing the adhesions
The rabbits were scored by two independent observers that were blinded to the prior treatment of the animal. If there was disagreement as to the score to be assigned to an individual animal, the higher score was given.
Statistical Analysis: The tenacity and overall scores were analyzed by rank order analysis and analysis of variance on the ranks. The percentage area of the horns involved to the various organs were compared by Student's t test.
[…] received two loading doses of 60 mg/kg COMPOUND 1 orally prior to surgery. At the end of the procedure, the animals received either nothing (surgical control), or 12 ml of placebo (10% CMC) or one of two doses (1 mg/ml or 0.1 mg/ml) of COMPOUND 1 at the site of surgical injury.
Oral+local study: Two loading doses of COMPOUND 1 (60 mg/kg, po) were administered orally prior to surgery. […]

[1] = 0.1 mg/ml COMPOUND 1, 2 Week Necropsy Time (Table 4), group mean ± spread
[2] = 0.1 mg/ml COMPOUND 1, 2 Week Necropsy Time (Table 4), individual rabbit
[3] = 0.1 mg/ml COMPOUND 1, 2 Week Necropsy Time (Table 4), individual rabbit, dash = site adhesion free
[4] = 0.1 mg/ml COMPOUND 1, 2 Week Necropsy Time (Table 8), group mean ± spread
[5] = 0.1 mg/ml COMPOUND 1, 2 Week Necropsy Time (Table 8), individual rabbit
[6] = 0.1 mg/ml COMPOUND 1, 2 Week Necropsy Time (Table 8), individual rabbit, dash = site adhesion free
[7] = 0.1 mg/ml COMPOUND 1, listed after Control/Placebo 1 Week
[8] = 0.1 mg/ml COMPOUND 1, listed after Control/Placebo 2 Weeks
[9] = 1 mg/ml COMPOUND 1, 1 Week Necropsy Time, group mean ± spread
[10] = 1 mg/ml COMPOUND 1, 1 Week Necropsy Time, individual rabbit
[11] = 1 mg/ml COMPOUND 1, 1 Week Necropsy Time, individual rabbit, dash = site adhesion free
[12] = 1 mg/ml COMPOUND 1, 2 Week Necropsy Time, group mean ± spread
[13] = 1 mg/ml COMPOUND 1, 2 Week Necropsy Time, individual rabbit
[14] = 1 mg/ml COMPOUND 1, 2 Week Necropsy Time, individual rabbit, dash = site adhesion free
[15] = 1 mg/ml COMPOUND 1, listed after Control/Placebo 1 Week
[16] = 1 mg/ml COMPOUND 1, listed after Control/Placebo 2 Weeks

## O=C(O)C[C@@H]1Cc2ccc(OCCCNc3ccccn3)cc2CN(CC(F)(F)F)C1=O [COMPOUND 1, (S)-3-oxo-8-[3-(pyridin-2-ylamino)-1-propyloxy]-2-(2,2,2-trifluoroethyl)-2,3,4,5-tetrahydro-1H-2-benzazepine-4-acetic acid]
[1]
  % Horn Involved, Left Horn, Bladder: 7.0 ± 5.0%
  % Horn Involved, Left Horn, Bowel: 10.0 ± 4.2%
  % Horn Involved, Left Horn, Itself: 22.0 ± 3.6%
  % Horn Involved, Left Horn, Right: 21.0 ± 4.8%
  % Horn Involved, Right Horn, Bladder: 9.0 ± 4.8%
  % Horn Involved, Right Horn, Bowel: 10.0 ± 4.2%
  % Horn Involved, Right Horn, Itself: 16.0 ± 5.0%
  % Horn Involved, Right Horn, Left: 21.0 ± 4.8%
0.1 mg/ml COMPOUND 1, 2 Week Necropsy Time (Table 4)
  Overall, (group summary): 30.2 ± 6.2
[2]
  Overall score: 1.5 (3×) and 2.0 (2×) and 1.0 (2×) and 0.5 and 2.5 (2×)
  tenacity of the adhesions score (in parentheses), Left Horn, Bladder: 1
  tenacity of the adhesions score (in parentheses), Left Horn, Bowel: 1
  tenacity of the adhesions score (in parentheses), Left Horn, Itself: 1 (7×) and 2 (2×)
  tenacity of the adhesions score (in parentheses), Left Horn, Right: 1 (6×) and 2 (2×)
  tenacity of the adhesions score (in parentheses), Right Horn, Bladder: 1
  tenacity of the adhesions score (in parentheses), Right Horn, Bowel: 1
  tenacity of the adhesions score (in parentheses), Right Horn, Itself: 1 (4×) and 2 (2×)
  tenacity of the adhesions score (in parentheses), Right Horn, Left: 1 (6×) and 2 (2×)
[3]
  % Horn Involved, Left Horn, Bladder: 10% (2×) and 50%
  % Horn Involved, Left Horn, Bowel: 10% (2×) and 20% (2×) and 40%
  % Horn Involved, Left Horn, Itself: 40% and 30% (3×) and 20% (4×) and 10%
  % Horn Involved, Left Horn, Right: 30% (3×) and 40% (2×) and 20% and 10% (2×)
  % Horn Involved, Right Horn, Bladder: 10% (4×) and 50%
  % Horn Involved, Right Horn, Bowel: 10% (2×) and 20% (2×) and 40%
  % Horn Involved, Right Horn, Itself: 40% and 30% (3×) and 10% and 20%
  % Horn Involved, Right Horn, Left: 30% (3×) and 40% (2×) and 20% and 10% (2×)
[4]
  % Horn Involved, Left Horn, Bladder: 7.0 ± 3.4%
  % Horn Involved, Left Horn, Bowel: 15.0 ± 5.0%
  % Horn Involved, Left Horn, Itself: 23.0 ± 5.6%
  % Horn Involved, Left Horn, Right: 15.0 ± 4.8%
  % Horn Involved, Right Horn, Bladder: 7.0 ± 3.4%
  % Horn Involved, Right Horn, Bowel: 13.0 ± 4.7%
  % Horn Involved, Right Horn, Itself: 11.0 ± 3.5%
  % Horn Involved, Right Horn, Left: 15.0 ± 4.8%
0.1 mg/ml COMPOUND 1, 2 Week Necropsy Time (Table 8)
  Overall, (group summary): 22.0 ± 4.8
[5]
  Overall score: 2.0 (2×) and 1.5 (4×) and 1.0 (2×) and 0.5 (2×)
  tenacity of the adhesions score (in parentheses), Left Horn, Bladder: 1
  tenacity of the adhesions score (in parentheses), Left Horn, Bowel: 1
  tenacity of the adhesions score (in parentheses), Left Horn, Itself: 1
  tenacity of the adhesions score (in parentheses), Left Horn, Right: 1
  tenacity of the adhesions score (in parentheses), Right Horn, Bladder: 1
  tenacity of the adhesions score (in parentheses), Right Horn, Bowel: 1
  tenacity of the adhesions score (in parentheses), Right Horn, Itself: 1
  tenacity of the adhesions score (in parentheses), Right Horn, Left: 1
[6]
  % Horn Involved, Left Horn, Bladder: 30% and 10% (2×) and 20%
  % Horn Involved, Left Horn, Bowel: 40% and 30% (3×) and 10% (2×)
  % Horn Involved, Left Horn, Itself: 30% (4×) and 50% and 20% and 40%
  % Horn Involved, Left Horn, Right: 10% and 40% and 30% (2×) and 20% (2×)
  % Horn Involved, Right Horn, Bladder: 30% and 10% (2×) and 20%
  % Horn Involved, Right Horn, Bowel: 40% and 30% (2×) and 10% (3×)
  % Horn Involved, Right Horn, Itself: 30% (2×) and 10% (5×)
  % Horn Involved, Right Horn, Left: 10% and 40% and 30% (2×) and 20% (2×)
[7]
  # Sites Adhesion Free: 34
  % Sites Adhesion Free: 42.5%
[8]
  # Sites Adhesion Free: 31
  % Sites Adhesion Free: 38.75%
[9]
  % Horn Involved, Left Horn, Bladder: 0.0 ± 0.0%
  % Horn Involved, Left Horn, Bowel: 18.0 ± 4.2%
  % Horn Involved, Left Horn, Itself: 18.0 ± 4.7%
  % Horn Involved, Left Horn, Right: 15.0 ± 4.0%
  % Horn Involved, Right Horn, Bladder: 3.0 ± 1.5%
  % Horn Involved, Right Horn, Bowel: 19.0 ± 3.8%
  % Horn Involved, Right Horn, Itself: 10.0 ± 4.2%
  % Horn Involved, Right Horn, Left: 15.0 ± 4.0%
1 mg/ml COMPOUND 1, 1 Week Necropsy Time
  Overall, (group summary): 21.3 ± 3.9
[10]
  Overall score: 1.0 (3×) and 0.5 and 1.5 (5×) and 2.0
  tenacity of the adhesions score (in parentheses), Left Horn, Bowel: 1
  tenacity of the adhesions score (in parentheses), Left Horn, Itself: 1
  tenacity of the adhesions score (in parentheses), Left Horn, Right: 1 (6×) and 2
  tenacity of the adhesions score (in parentheses), Right Horn, Bladder: 1
  tenacity of the adhesions score (in parentheses), Right Horn, Bowel: 1
  tenacity of the adhesions score (in parentheses), Right Horn, Itself: 1
  tenacity of the adhesions score (in parentheses), Right Horn, Left: 1 (6×) and 2
[11]
  % Horn Involved, Left Horn, Bowel: 30% (4×) and 20% (3×)
  % Horn Involved, Left Horn, Itself: 20% (2×) and 30% (3×) and 10% and 40%
  % Horn Involved, Left Horn, Right: 20% (2×) and 10% (2×) and 30% (3×)
  % Horn Involved, Right Horn, Bladder: 10%
  % Horn Involved, Right Horn, Bowel: 30% (4×) and 10% and 20% (3×)
  % Horn Involved, Right Horn, Itself: 20% (2×) and 10% (2×) and 40%
  % Horn Involved, Right Horn, Left: 20% (2×) and 10% (2×) and 30% (3×)
[12]
  % Horn Involved, Left Horn, Bladder: 4.0 ± 2.7%
  % Horn Involved, Left Horn, Bowel: 17.0 ± 5.2%
  % Horn Involved, Left Horn, Itself: 18.0 ± 4.2%
  % Horn Involved, Left Horn, Right: 5.0 ± 3.4%
  % Horn Involved, Right Horn, Bladder: 4.0 ± 2.2%
  % Horn Involved, Right Horn, Bowel: 13.0 ± 4.0%
  % Horn Involved, Right Horn, Itself: 13.0 ± 5.0%
  % Horn Involved, Right Horn, Left: 5.0 ± 3.4%
1 mg/ml COMPOUND 1, 2 Week Necropsy Time
  Overall, (group summary): 21.2 ± 5.5
[13]
  Overall score: 1.0 (5×) and 2.5 and 1.5 (2×) and 0.5 and 2.0
  tenacity of the adhesions score (in parentheses), Left Horn, Bladder: 2 and 1
  tenacity of the adhesions score (in parentheses), Left Horn, Bowel: 2 (2×) and 1 (4×)
  tenacity of the adhesions score (in parentheses), Left Horn, Itself: 1 (6×) and 2 (2×)
  tenacity of the adhesions score (in parentheses), Left Horn, Right: 2 and 1
  tenacity of the adhesions score (in parentheses), Right Horn, Bladder: 1
  tenacity of the adhesions score (in parentheses), Right Horn, Bowel: 1 (6×) and 2
  tenacity of the adhesions score (in parentheses), Right Horn, Itself: 1 (4×) and 2
  tenacity of the adhesions score (in parentheses), Right Horn, Left: 2 and 1
[14]
  % Horn Involved, Left Horn, Bladder: 20%
  % Horn Involved, Left Horn, Bowel: 30% (4×) and 10% and 40%
  % Horn Involved, Left Horn, Itself: 20% (3×) and 30% (2×) and 10% (2×) and 40%
  % Horn Involved, Left Horn, Right: 30% and 20%
  % Horn Involved, Right Horn, Bladder: 10% (2×) and 20%
  % Horn Involved, Right Horn, Bowel: 10% (4×) and 30% (3×)
  % Horn Involved, Right Horn, Itself: 20% and 30% (2×) and 10% and 40%
  % Horn Involved, Right Horn, Left: 30% and 20%
[15]
  # Sites Adhesion Free: 36
  % Sites Adhesion Free: 45.0%
[16]
  # Sites Adhesion Free: 45
  % Sites Adhesion Free: 56.25%
